Experimental data from patent US20060063810A1, “Combination treatment for impaired motor function in parkinson's disease” (priority 2003, published 2006).

Columns and labels:
parkinsonian patients = conditions: in vivo; cited from earlier work
HD patients = conditions: cited from earlier work
[1] = test system: Parkinson Disease patients suffering from severe bradykinesia and motor fluctuations (dyskinesias) induced by L-Dopa therapy; assay: Double-blind, randomized, placebo-controlled clinical study of AMN lead-in followed by add-on CIT (Example 9, Method B); type: in vivo, human; conditions: patients 1, 2 and 4; first four visits; three weeks of treatment with amantadine only
Experimental: The study is conducted in a double-blind, randomized, placebo-controlled, parallel-group design, with 2 treatment phases: 3 weeks open label, up -titration amantadine lead-in phase, follow by a 6 weeks add-on citalopram phase; performed in Parkinson Disease patients suffering from severe bradykinesia and motor fluctuations—dyskinesias—induced by L-Dopa therapy.
Amantadine Hydrochloride: 50 mg arnantadine hydrochloride is administered as a b.i.d. regimen during 1 week. Up titration to 100 mg amantadine hydrochloride administered as a b.i.d. regimen during the second week. Up titration to 150 mg amantadine hydrochloride administered as a b.i.d. regimen during the third week. […]
The total score for UPDRS subscale IV is employed to evaluate the severity and characteristics of L-Dopa induced dyskinesias. The total score is calculated as the sum of all scores assigned in the dyskinesia items: 32, 33, 34 and 35; the clinical fluctuations items (calculated as the sum of all scores assigned in items 36, 38 and 39). Items 32, 33, 34 and 35 are recorded according to historical information and item 33 is also modified by office examination. […]
The total score of the subscale III of the UPDRS is employed to examine parkinsonian symptoms. Motor functionality is assessed as the total motor score calculated as the sum of all scores assigned in items 18, 19, 20, 21, 22, 23, 24, 25, 26, 27, 28, 29, 30 and 31. […]

dyskinesia = conditions: normal therapeutic (anti-anxiolytic) levels; cited from earlier work
Parkinson's disease = conditions: in vivo; cited from earlier work
[2] = test system: single Parkinson's patient; conditions: citalopram added to the anti-Parkinson's drug regime of a single patient; cited from earlier work
[3] = test system: patients suffering from different types of tremors; conditions: human, in vivo; cited from earlier work

In the case of `CC(C)(C)N1CCC(c2ccccc2)(c2ccccc2)CC1` [Budipine, 1-Tert-butyl-4,4-diphenylpiperidine], the “akinesia, rigidity, and tremor” value (parkinsonian patients) is given as “significantly reduces akinesia, rigidity, and tremor” and the “time to optimal effects after starting treatment” value (parkinsonian patients) is given as 4-6 weeks.

In the case of `NC12CC3CC(CC(C3)C1)C2` [amantadine], the “neuropsychologic and psychiatric assessments” value (HD patients; after 6 and 12 months of therapy) is given as “No changes”, the dyskinesias (HD patients; eight HD patients, oral amantadine 100 mg tid, unblinded, 1-year period, p<0.01) is given as “significant reduction of dyskinesias” and the “UPDRS III scores (motor performance)” value [1] is given as “improvement in motor performance”. For the same compound, the “UPDRS IV scores (severity and characteristics of L-Dopa induced dyskinesias, motor fluctuations)” value [1] was “improvement in motor fluctuations”.

In the case of `O=C1CC2(CCCC2)CC(=O)N1CCCCN1CCN(c2ncccn2)CC1` [buspirone], the effect on dyskinesia (dyskinesia) is listed as “no different than placebo” and the “treatment of Parkinson's disease” value (Parkinson's disease) is listed as “ineffective”.

In the case of `CN(C)CCCC1(c2ccc(F)cc2)OCc2cc(C#N)ccc21` (stereo not shown) [citalopram], the motor symptoms [2] is given as “worsened their motor symptoms”.

For `O=c1n(CCCN2CCN(c3cccc(Cl)c3)CC2)nc2ccccn12` [trazodone], the tremors [3] is listed as “significantly reduced tremors”.
